Here are results for eleven compounds from ChEMBL document CHEMBL1201862, “PubChem BioAssay data set” (2004).

Some test systems named below: MDA-N; IGROV-1; SF-268; SNB-75; NCI-H522; SK-MEL-28; CAKI-1; HOP-92; T47D; SN12C; UACC-62; NCI-H23; KM12; TK-10; HCT-116; A549; UACC-257; SK-MEL-2; HCT-15; LOX IMVI.
Common to all, as to assay: NCI tumour cell line growth inhibition, 48 h

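Compound exposure: 48 hours, 5 concentrations, 96-well plates. GI50 = concentration required for 50% inhibition of growth.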 Active and inactive are the calls of the source. No stated cut-off is given here; in the data, active = GI50 up to about 1.1 µM and inactive = higher. Bounds are passed on as bounds.

Regarding `CC(=O)Oc1ccc2c(c1)CC[C@@H]1C2CC[C@]2(C)C(=O)NC(=O)CC12` (some centres not stated), the GI50 in the experiment on MDA-N, in the experiment with IGROV-1, with SF-268, in the experiment on SNB-75, with NCI-H522 and in the experiment with SK-MEL-28 was > 100 µM (inactive) throughout. In addition, the GI50 with CAKI-1, with HOP-92, in the experiment with T47D, in the experiment on SN12C, with UACC-62 and in the experiment with NCI-H23 was > 100 µM (inactive) in each case. The GI50 in the experiment on KM12, in the experiment on TK-10, in the experiment on HCT-116, in the experiment on A549 and in the experiment on UACC-257 was > 100 µM (inactive) in each case.
Turning to `CC(C)(NO)/C(=N\O)c1ccccc1`, the GI50 with MDA-N was > 10 µM (inactive); in the experiment on SK-MEL-2 it was > 10 µM (inactive); in the experiment on HCT-15, > 10 µM; in the experiment on SF-268, > 10 µM (inactive); in the experiment with NCI-H522 it was > 10 µM (inactive); in the experiment on CAKI-1, > 10 µM (inactive). Further, the GI50 with HOP-92, in the experiment on T47D, with SN12C, with NCI-H23, with KM12 and in the experiment with TK-10 was > 10 µM (inactive) each time. Moreover, the GI50 in the experiment on HCT-116 and with UACC-257 was > 10 µM (inactive) throughout.
For the compound `COc1ccccc1/C=C1\Sc2scc(-c3ccc(O)c(O)c3)[n+]2C1=O`, the GI50 in the experiment with MDA-N is 23.9 µM (inactive); with SK-MEL-2 it was 17.2 µM (inactive); with IGROV-1, 15.9 µM (inactive); in the experiment on HCT-15, 16.5 µM; in the experiment on SF-268 it was 58.9 µM (inactive); in the experiment on NCI-H522, 8.99 µM (inactive). In addition, the GI50 is 18 µM (inactive) in the experiment on LOX IMVI; 18.2 µM (inactive) in the experiment on SK-MEL-28; 15.1 µM (inactive) in the experiment with CAKI-1; 19.7 µM (inactive) with HOP-92; 16.3 µM (inactive) in the experiment on T47D; 22.5 µM (inactive) in the experiment with SN12C. For the same compound, the GI50 with UACC-62 was 16.7 µM (inactive); in the experiment with NCI-H23, 26.6 µM (inactive); in the experiment on KM12, 32 µM (inactive); in the experiment on TK-10, 28.5 µM (inactive); in the experiment on HCT-116, 16.8 µM (inactive); in the experiment on A549 it was 45.8 µM (inactive). Further, in the experiment on UACC-257, the GI50 was 26.3 µM (inactive).
In the case of `N#CCCN(CCC#N)c1ccc(C(=N/c2ccc(F)cc2)/N=N/c2ccc(Cl)cc2)cc1`, the GI50 was > 100 µM (inactive) in the experiment on MDA-N; > 100 µM (inactive) with IGROV-1; > 100 µM with HCT-15; > 100 µM (inactive) with SF-268; > 100 µM (inactive) with SNB-75; > 100 µM (inactive) in the experiment on NCI-H522. For the same compound, the GI50 in the experiment with SK-MEL-28, in the experiment on CAKI-1, in the experiment on HOP-92, in the experiment on T47D, in the experiment with SN12C and with UACC-62 was > 100 µM (inactive) in each case. Also, the GI50 with NCI-H23, with KM12, in the experiment with TK-10, in the experiment with HCT-116, in the experiment with A549 and in the experiment with UACC-257 was > 100 µM (inactive) each time.
For the compound `N#CCN(CC#N)C1CC=CCC1N(CC#N)CC#N` (configuration not stated), the GI50 in the experiment with MDA-N is > 100 µM (inactive); with SK-MEL-2, > 100 µM (inactive); with IGROV-1, > 100 µM (inactive); with HCT-15, > 100 µM; with SF-268, > 100 µM (inactive); in the experiment on NCI-H522, > 100 µM (inactive). Further, the GI50 in the experiment on LOX IMVI, in the experiment with CAKI-1, in the experiment on HOP-92, in the experiment on T47D, with SN12C and in the experiment with UACC-62 was > 100 µM (inactive) throughout. Besides, the GI50 in the experiment with NCI-H23, with KM12, in the experiment on TK-10, with HCT-116, in the experiment with A549 and with UACC-257 was > 100 µM (inactive) throughout.
For the compound `N#Cc1c(-c2ccc([N+](=O)[O-])cc2)c2c([nH]c1=O)-c1ccccc1CCC2`, the GI50 was 94.2 µM (inactive) in the experiment on MDA-N; 97.9 µM (inactive) with SK-MEL-2; 46.8 µM (inactive) in the experiment with IGROV-1; 31.3 µM with HCT-15; 68.7 µM (inactive) with SF-268; 41.5 µM (inactive) with NCI-H522. For the same compound, the GI50 in the experiment with LOX IMVI is 56.6 µM (inactive); in the experiment with SK-MEL-28, 47.9 µM (inactive); in the experiment on CAKI-1, > 100 µM (inactive); in the experiment on HOP-92 it was 1.48 µM (inactive); in the experiment with T47D, 21.5 µM (inactive); in the experiment with SN12C, > 100 µM (inactive). The GI50 in the experiment with UACC-62 was 28.1 µM (inactive); in the experiment on NCI-H23, > 100 µM (inactive); in the experiment with KM12, 40.7 µM (inactive); with TK-10, > 100 µM (inactive); with HCT-116, 60.4 µM (inactive); with A549 it was 42.8 µM (inactive). Moreover, in the experiment on UACC-257, the GI50 is 80 µM (inactive).
Consider `CCc1n[nH]c(=O)n1O`, for which the GI50 with MDA-N, with SK-MEL-2, with IGROV-1, in the experiment with SF-268, in the experiment with NCI-H522 and with SK-MEL-28 was > 100 µM (inactive) each time. The GI50 is > 100 µM (inactive) in the experiment on CAKI-1; 0.0738 µM (active) in the experiment with HOP-92; > 100 µM (inactive) in the experiment with T47D; > 100 µM (inactive) in the experiment on SN12C; > 100 µM (inactive) in the experiment on UACC-62; > 100 µM (inactive) in the experiment on NCI-H23. Further, the GI50 in the experiment with KM12, in the experiment on TK-10, with HCT-116, in the experiment with A549 and in the experiment on UACC-257 was > 100 µM (inactive) throughout.
Regarding `COC(=NCCC1=CCCCC1)OC`, the GI50 was 95.3 µM (inactive) in the experiment on MDA-N; 87.7 µM (inactive) in the experiment with SK-MEL-2; 32.8 µM (inactive) in the experiment on IGROV-1; 82 µM in the experiment on HCT-15; > 100 µM (inactive) with SF-268; 71.6 µM (inactive) with SNB-75. The GI50 in the experiment on NCI-H522 was 32.4 µM (inactive); with SK-MEL-28, 44.7 µM (inactive); in the experiment on CAKI-1 it was > 100 µM (inactive); with HOP-92, 31.6 µM (inactive); with T47D, 32.9 µM (inactive); with UACC-62 it was > 100 µM (inactive). The GI50 is 58.6 µM (inactive) with NCI-H23; 78.9 µM (inactive) in the experiment with KM12; > 100 µM (inactive) in the experiment on TK-10; 32.8 µM (inactive) in the experiment with HCT-116; 69.3 µM (inactive) with A549; 39.3 µM (inactive) in the experiment on UACC-257.
Take `CN(C)c1ccc(/C=C2\N=C(N/N=C/c3ccc(N(C)C)cc3)NC2=O)cc1`: the GI50 with MDA-N is > 100 µM (inactive); in the experiment with SK-MEL-2, > 100 µM (inactive); in the experiment with IGROV-1 it was 38.7 µM (inactive); in the experiment on HCT-15 it was 30.8 µM; with SF-268 it was 80.4 µM (inactive); in the experiment on SNB-75, > 100 µM (inactive). Besides, the GI50 was 47.9 µM (inactive) in the experiment on NCI-H522; > 100 µM (inactive) in the experiment on SK-MEL-28; > 100 µM (inactive) with CAKI-1; 25.5 µM (inactive) in the experiment with HOP-92; 16.7 µM (inactive) in the experiment with T47D; > 100 µM (inactive) with SN12C. Further, the GI50 is > 100 µM (inactive) with UACC-62; > 100 µM (inactive) in the experiment with NCI-H23; 61.1 µM (inactive) in the experiment with KM12; > 100 µM (inactive) in the experiment on TK-10; > 100 µM (inactive) in the experiment with HCT-116; 92.5 µM (inactive) with A549. Besides, in the experiment with UACC-257, the GI50 was > 100 µM (inactive).
With `CNC(=O)c1cc(NC(=O)N(CCC#N)CCN(C(=O)N[C@@H](Cc2ccccc2)C(=O)N[C@@H](CC(C)C)C(=O)NC)c2ccccc2)ccc1OC`, the GI50 with MDA-N was > 100 µM (inactive); in the experiment with SK-MEL-2, 31.8 µM (inactive); in the experiment on IGROV-1, 24.4 µM (inactive); in the experiment on HCT-15, > 100 µM; in the experiment on SF-268 it was 34.2 µM (inactive); in the experiment with SNB-75, 49.3 µM (inactive). For the same compound, the GI50 is 49.3 µM (inactive) in the experiment on LOX IMVI; 29.3 µM (inactive) with SK-MEL-28; > 81.1 µM (inactive) in the experiment on CAKI-1; 20.9 µM (inactive) in the experiment with HOP-92; > 47.6 µM (inactive) in the experiment with T47D; > 51.6 µM (inactive) in the experiment with SN12C. Moreover, the GI50 in the experiment on UACC-62 is 23.2 µM (inactive); in the experiment with NCI-H23 it was > 100 µM (inactive); with KM12, > 62.1 µM (inactive); in the experiment with TK-10 it was > 72.6 µM (inactive); in the experiment with HCT-116, > 63.7 µM (inactive); with A549, > 100 µM (inactive). Moreover, in the experiment with UACC-257, the GI50 is 19.5 µM (inactive).
With `C=CCSC1=N/C(=C\c2ccc(OC)cc2)C(=O)N1CC=C`, the GI50 is 23.2 µM (inactive) in the experiment on MDA-N; 29.6 µM (inactive) with SK-MEL-2; > 100 µM (inactive) with IGROV-1; 20.8 µM in the experiment with HCT-15; 60.4 µM (inactive) in the experiment on SF-268; 27.7 µM (inactive) in the experiment on NCI-H522. Also, the GI50 in the experiment with LOX IMVI is 33 µM (inactive); in the experiment on SK-MEL-28, 42.5 µM (inactive); in the experiment with CAKI-1, 50.5 µM (inactive); with HOP-92, 28.8 µM (inactive); in the experiment on T47D, 16.2 µM (inactive); in the experiment on SN12C, 24.1 µM (inactive). The GI50 is 30.3 µM (inactive) with UACC-62; 28.4 µM (inactive) in the experiment on NCI-H23; 21.9 µM (inactive) in the experiment on KM12; 45.2 µM (inactive) in the experiment on TK-10; 25.4 µM (inactive) in the experiment on HCT-116; 30.9 µM (inactive) in the experiment on A549. The GI50 with UACC-257 is 23.2 µM (inactive).
